The text below walks through data of patent publication US8618074B2, “GPCR enhanced neuroprotection to treat brain injury” (Board of Regents of the University of Texas System, priority 2007, dated 2013).

Assay [1] deals with astrocytes. The assay is described as follows: Mitochondrial membrane potential ΔΨ estimated as log(Fmito/Fcyto) with TMRE. It counts as cell-based, mouse. The conditions noted are these: treating astrocytes for 10 minutes. The procedure: Mitochondrial membrane potentials (ΔΨs) was measured as previously described using the potential sensitive dye tetra-methyl rhodamine ethyl ester (TMRE, Molecular Probes, #T-669) (Lin and Lechleiter, 2002). Images were acquired with a 60× oil 1.4 NA objective on a Nikon PCM2000 confocal microscope custom adapted for two-photon imaging. A Ti-sapphire Coherent Mira 900 Laser pumped with a 5W Verdi laser (Coherent Inc., Santa Clara, Calif.) was used to excite TMRE at 800 nm A neutral-density filter wheel was used to attenuate the laser intensity so that no detectable photobleaching of TMRE was observed.
We confirmed this by directly measuring the effect of ATP, ATP plus XeC and IP3-BM treatments on ΔΨ. Cultured cells were labeled with TMRE (200 nM) and imaged with a two-photon microscope as described above. ΔΨ was estimated as the log (Fmito/Fcyto) where Fmito is the peak fluorescent intensity observed in single mitochondria (Farkas et al., 1989; Lin et al., 2005). The mean values of individual mitochondria from a single cell were used for the mitochondrial potential estimate. Fcyto represents the lowest value of TMRE fluorescence observed within the boundaries of the same cell. […] FIG. 5E depicts a histogram plot showing average mitochondrial membrane potentials before and after treatment. The mean resting ΔΨs for untreated (Buffer), ATP-treated, ATP plus XeC-treated and IP3-BM-treated were 1.84+0.01 (n=78 mitochondria, pooled from 2 experiments), 1.84+0.01 (n=85 mitochondria), 1.85+0.01 (n=80 mitochondria) and 1.86+0.01 (n=48 mitochondria), respectively. Astrocyte cultures were then exposed to their respective treatments and the same fields of mitochondria were imaged 10 minutes later.

In assay [2] the test system is astrocytes. The assay is described as follows: Confocal Ca2+ imaging of astrocytes on bath application of ATP. The format is cell-based, mouse. The following applies: bath application of ATP 1 μM; cultured young and old astrocytes. The source says:
The next physiological response that we investigated during aging was intracellular Ca^2+ signaling. Metabotropic purinergic receptors (P2Y-Rs) are well known to generate robust Ca^2+ signals in astrocytes. Our initial bias was that we would observe reduced Ca^2+ responses in astrocytes cultured from old mice. […] Ca^2+ measurements were made using standard confocal imaging of Ca^2+ sensitive fluorescent dyes, which loaded equally well for both young and old astrocytes. […] The first surprise finding was that a higher percentage of old astrocytes (more than half) responded to exogenously applied ATP. […] However, we can account for these observed enhancements to cytosolic Ca^2+ signaling in old astrocytes by a reduced ability of mitochondria to sequester Ca^2+ during aging. […] The ability of mitochondria to sequester Ca^2+, and thereby modulate IP3-induced Ca^2+ release, is critically dependent on the mitochondrial membrane potential (ΔΨ) and close proximity of mitochondria to the Ca^2+ release site. This proximity allows mitochondria to sense greater Ca^2+ concentrations than those present in the bulk cytosolic compartment. Consequently, a reduction in ΔΨ with age will reduce mitochondrial Ca^2+ buffering, thereby leading to increased cytosolic Ca^2+ release and faster Ca^2+ dynamics.

For assay [3], the system named is RB-induced cerebral infarcts in the mouse cortex. Nature of the assay: RB-induced photothrombotic cerebral infarct size, small animal imaging with PE-Cy5.5 anti-CD40. It counts as in vivo. The procedure: These set of experiments utilizes small animal imaging studies to non-invasively study the impact of G-protein stimulated IP3-gated Ca^2+ release on astrocyte neuroprotection during the aging process. In brief, focal cerebral infarcts are induced using photothrombosis as described in EXAMPLE 8. However, irradiation of the brain with green light is carried out through the cranium with a 10× objective. […] We observe the size of the lesion in subsequent days by taking advantage of an inflammatory response at the lesion, which we label with a fluorescently conjugated antibody to CD40 (PE-Cy5.5-anti-mouse-CD40). […] It has also been reported that the PE-Cy5.5 CD40 antibody localized to activated endothelium at the brain lesion and to blood derived cells of the mononuclear lineage. We have successfully used this approach to image RB-induced brain inflammation in mice with high sensitivity and specificity. […] To carry out these experiments, 3 mice were imaged. On the day of the initial photothrombosis, one mouse was injected with Rose Bengal, one with Rose Bengal and 2-MeSADP and the third mouse was injected only with saline. […] For one set of mice, we re-imaged the mice at day 17 post occlusion and found CD40 labeling undetectable in the 2-MeSADP injected mouse. […] Finally, in one mouse, we also injected a fluorescent dye (IR-820) on day 3 that is a strong indicator of blood brain barrier dysfunction. Accumulation of this dye at the site of a lesion is consistent with a permeant (i.e., compromised) blood brain barrier. As noted above small animal imaging has been successfully employed to progressively follow and measure the size of Rose Bengal (RB)-induced brain infarcts in live mice for over 2 weeks.

Assay [4] deals with astrocytes. The assay is described as follows: MCB (reduced GSH) fluorescence of cortical astrocytes after RB-induced clot/ischemia. It counts as in vivo, mouse. The following applies: 340 minutes after the initial clot; tail vein injection with RB. The procedure:
In another series of experiments, a transgenic mouse expressing green fluorescent protein (GFP) in astrocytes was prepared for imaging. In this mouse, the cortical cells were labeled with monochlorobimane (MCB), a fluorescent indicator of reduced GSH. After obtaining an image of astrocytes (GFP) and MCB fluorescence, the mouse was tail vein injected with Rose Bengal (RB), FITC-dextran and the P2Y-R agonist 2-MeSADP. A clot was induced with 543 nm irradiation in a region of the brain. Breakdown of the blood brain barrier in the region near this clot permitted secretion of 2-MeSADP in the nearby astrocytes. MCB fluorescence was maintained for over an hour in all of the cells in the field of view. […] The persistence of GSH in this area indicates an enhanced region of protection against oxidative stress caused by ischemia. Lineplots of MCB fluorescence of the astrocytes is depicted in FIG. 7. Cells a1-a3 are within the protected zone and cells a4-a6 are outside this area.

As for `Nc1ncnc2c1ncn2[C@@H]1O[C@H](COP(=O)(O)OP(=O)(O)OP(=O)(O)O)[C@@H](O)[C@H]1O` [ATP], the “ΔΨ (log Fmito/Fcyto) after treatment” value in the assay on astrocytes [1] was 1.98±0.01. Moreover, the “Ca2+ oscillations” value in the assay with astrocytes [2] is recorded as “stimulated Ca^2+ oscillations”.

Take `CSc1nc(N)c2ncn([C@@H]3O[C@H](COP(=O)(O)OP(=O)(O)O)[C@@H](O)[C@H]3O)c2n1` [2-MeSADP]: the “size of the cerebral infarct” value in assay [3] (2-MeSADP introduced 24 hours later) and in assay [3] (2-MeSADP present during the initial photothrombosis (day 0)) was “reduced” each time. In addition, in assay [3] (day 3 after cerebral infarction, co-injected with Rose Bengal, versus Rose Bengal or saline alone), the “size of the lesion” value was “significantly smaller”. Moreover, the CD40 labeling result in assay [3] (day 17 post occlusion) is “undetectable”. In the assay on astrocytes [4], the “MCB fluorescence (GSH) of astrocytes near the initial clot zone” value is recorded as “essentially maintained”.
